Series [1] is described as follows: Pharmacokinetic study: blood concentrations of cocaine and BZE in mice after IP cocaine (LC-MS). The series is classed as in vivo. Conditions: cocaine 1.5 mg/Kg IP, blood sampled at 0, 0.5, 1 and 5 min post-injection. The protocol:
Panel A. Time-dependent blood concentrations of COC and BZE in mice receiving 1.5 mg/Kg cocaine per mouse via IP injection. Panel B. Experimental setup of in vivo detection of circulating COC/BZE using MN-based aptasensor on a B6 black mouse. Panel C. Time-dependent fluorescence intensity of an individual MN that pierces into the mouse skin.
An optical fiber of 500 um in diameter was engineered including 6 emission light collection fibers each at 125 um in diameter, surrounding the single excitation light fiber at the center (FIGS. 13a & 13c). The excitation laser (532-589 nm) is administered directly to the upper dermis via the fiber and transparent MNA to induce skin capillary leakage or extravasation of biomarkers. […] To validate this, cocaine was IP administered at 1.5 mg/Kg per mouse and blood was sampled at 0, 0.5, 1, and 5 min, post-injection. […] When the MNA aptasensor was inserted into the black B6 mice receiving 1.5 mg/kg cocaine intraperitoneally and illuminated with 532 nm laser on the dorsal skin (FIG. 15B), a significant growth of fluorescence intensity as a function of time due to displacement of QDNA by cocaine was clearly seen on individual microneedles (FIG. 15C), confirming the ability of the aptasensor to detect the illicit drug in real time. […]

For series [2] the following is noted: humans; cited from earlier work.

With `CN1[C@H]2CC[C@@H]1[C@@H](C(=O)O)[C@@H](OC(=O)c1ccccc1)C2` [BZE, benzoylecgonine], in series [1], the “blood concentration over time” value was “increasing sharply at the first 1 min and then stayed in plateau”.
On to `COC(=O)[C@H]1[C@@H](OC(=O)c2ccccc2)C[C@@H]2CC[C@H]1N2C` [cocaine], for which the “blood concentration over time” value in series [1] was “slightly increased over the 5 min”. Also, the “cocaine concentration in blood” value in series [2] is 0.06 to 0.1 mg/L.

These data come from patent US20260072021A1, “SYSTEM, METHOD, AND APPARATUS FOR MICRONEEDLE ARRAY-BASED IMM[…] MULTIPLEX DETECTION OF BIOMARKERS” (The General Hospital Corporation, priority 2022, published 2026).
